# US7683162B2, “Process of preparing a crystalline azithromycin monohydrate” (Taro Pharmaceutical Industries Limited, priority 2004, dated 2010)
# Like-named read-outs stand apart in the source and are kept apart here.
# What was measured:
# [1] = Storage of crystalline azithromycin monohydrate under accelerated conditions (40° C. and 75% relative humidity); type: physicochemical
# Source text: (§1) The drying step in step (d) may be performed in stages. To achieve the desired water content, the isolated precipitate may first be dried for a period of time; and then dried for a subsequent period of time. Water content may be conveniently determined at different stages to ensure that a specified water content is achieved. Drying time and conditions may be easily optimized by one skilled in the art. Water content determination is in accordance to U.S. Pharmacopeia (USP) <921> Method I, which is incorporated herein by reference in its entirety.
# (§2) (i) Chromatographic Conditions—The purity of a crystalline azithromycin monohydrate sample was determined using a high performance liquid chromatography (HPLC) instrument with a variable wavelength detector. The chromatographic conditions were: (i) Column—Xterra RP-18, endcapped 5 μm, 250×4.6 mm or equivalent; (ii) Flow Rate—1.0 mL/min; (iii) Column temperature—28° C.; (iv) Detection—UV at 215 nm; (v) Injection volume—20 μL; (vi) Run time—30 min; and, (vii) Mobile phase,Borate buffer pH=9.5: Acetonitrile (1:1, v/v). The mobile phase was prepared by adding NaOH (5N) to a solution of boric acid (about 1.2 grams) in water (1,000 mL; HPLC grade) to obtain a pH of 9.5.
# (§3) (ii) Standard Solution for Purity Determination—A standard solution for purity determination was prepared by dissolving azithromycin monohydrate (about 50 mg, accurately weighed), in sufficient acetonitrile to fill a 25 mL volumetric flask. The azithromycin monohydrate used in the standard solution was prepared according to the procedure set forth in U.S. Pat. No. 6,268,489.
# (§4) (iii) Preparation of Crystalline Azithromycin Monohydrate Sample Solution—A crystalline azithromycin monohydrate sample solution was prepared by transferring approximately 50 mg of the crystalline azithromycin monohydrate sample to be assayed into a 25 mL volumetric flask and diluting to volume with acetonitrile.
# (§5) (iv) HPLC Protocol—The retention time of azithromycin was about 20 minutes. The retention time of azaerythromycin was about 13 minutes. Six replicates of the standard solution for determination of impurities, and 5 replicates of the standard solution for purity determination were injected into the HPLC system. The relative standard deviation of 5 replicate injections of the standard solution for purity determination was not more than 2.0%. The relative standard deviation of 6 replicate injections of the standard solution for determination of impurities was not more than 5.0%. If necessary, the mobile phase composition and/or flow rate were adjusted to meet the chromatographic parameters. The limit of detection for azaerythromycin was 0.04%. The limit of quantitation for azaerythromycin was 0.04%. The limit of detection for azithromycin was 0.04%. The limit of quantitation for azithromycin was 0.05%.
# (§6) [formula] The terms are defined as follows: (i) Wst=Weight of standard in mg; (ii) Wsm=Weight of sample in mg; (iii) Ssm=Peak area of azithromycin obtained from sample solution; (iv) Sst=Average peak area of azithromycin obtained from standard solution for purity determination; (v) Pst=Purity of azithromycin standard in percent; and (vi) Msm=Water content of sample in percent. (B) Determination of Ethanol Content of Crystalline Azithromycin Monohydrate
# (§7) The hygroscopicity of a crystalline azithromycin monohydrate was determined by monitoring its water content during storage. Specifically, the water content of the crystalline azithromycin monohydrate was determined at time zero and at various times thereafter during storage (e.g., 1, 2, and 3 months) under ambient conditions and accelerated conditions.
# [2] = Storage of crystalline azithromycin monohydrate under ambient conditions (25° C. and 60% relative humidity); type: physicochemical
# Source text: as §1, §2, §3, §4, §5, §6, §7
# [3] = cited from earlier work; for hygroscopicity (in words) / stability (in words): as described in the cited patent or publication
# [4] = 3 months at 40° C. and 75% relative humidity
# [5] = 40° C., 75% relative humidity, 0 months
# [6] = 40° C., 75% relative humidity, 1 month
# [7] = 40° C., 75% relative humidity, 2 months
# [8] = 40° C., 75% relative humidity, 3 months
# [9] = 3 months at 25° C. and 60% relative humidity
# [10] = 25° C., 60% relative humidity, 0 months
# [11] = 25° C., 60% relative humidity, 3 months
compound,measurement,setting,value
CC[C@H]1OC(=O)[C@H](C)[C@@H](O[C@H]2C[C@@](C)(OC)[C@@H](O)[C@H](C)O2)[C@H](C)[C@@H](O[C@@H]2O[C@H](C)C[C@H](N(C)C)[C@H]2O)[C@](C)(O)C[C@@H](C)CN(C)[C@H](C)[C@@H](O)[C@]1(C)O.O [crystalline azithromycin monohydrate],degradation after storage,"[1]; 3 months (at least about 3 months), 40° C. and 75% relative humidity",less than 2 % (w/w)
same,hygroscopicity (in words),[1]; [4],non-hygroscopic
same,stability (in words),[1]; [4],stable
same,water content after storage (in words),[1]; 3 months under accelerated conditions,remained substantially unchanged
same,Appearance,[1]; [5],White
same,Azaerythromycin,[1]; [5],0.3%
same,"Other Impurities, RRT = 0.23",[1]; [5],% = 0.10
same,"Other Impurities, RRT = 0.26",[1]; [5],% = 0.20
same,"Other Impurities, RRT = 0.34",[1]; [5],% = 0.10
same,"Other Impurities, RRT = 0.42",[1]; [5],% = 0.30
same,"Other Impurities, RRT = 0.45",[1]; [5],% = 0.07
same,"Other Impurities, RRT = 0.48",[1]; [5],% = 0.20
same,"Other Impurities, RRT = 1.45",[1]; [5],% = 0.05
same,"Other Impurities, RRT = 1.50",[1]; [5],% = 0.20
same,"Other Impurities, RRT = 1.56",[1]; [5],% = 0.10
same,Purity,[1]; [5],100.10%
same,Total Impurities,[1]; [5],1.60%
same,Water content,[1]; [5],5.9%
same,pH,[1]; [5],10.4
same,Appearance,[1]; [6],White
same,Azaerythromycin,[1]; [6],0.4%
same,"Other Impurities, RRT 0.23",[1]; [6],"0.23, 0.10%"
same,"Other Impurities, RRT 0.26",[1]; [6],"0.26, 0.20%"
same,"Other Impurities, RRT 0.35",[1]; [6],"0.35, 0.10%"
same,"Other Impurities, RRT 0.38",[1]; [6],"0.38, 0.05%"
same,"Other Impurities, RRT 0.43",[1]; [6],"0.43, 0.30%"
same,"Other Impurities, RRT 0.46",[1]; [6],"0.46, 0.08%"
same,"Other Impurities, RRT 0.48",[1]; [6],"0.48, 0.20%"
same,"Other Impurities, RRT 1.50",[1]; [6],"1.50, 0.20%"
same,"Other Impurities, RRT 1.56",[1]; [6],"1.56, 0.20%"
same,Purity,[1]; [6],101.00%
same,Total Impurities,[1]; [6],1.80%
same,Water content,[1]; [6],5.9%
same,pH,[1]; [6],10.0
same,Appearance,[1]; [7],White
same,Azaerythromycin,[1]; [7],0.3%
same,"Other Impurities, RRT 0.23",[1]; [7],"0.23, 0.10%"
same,"Other Impurities, RRT 0.25",[1]; [7],"0.25, 0.20%"
same,"Other Impurities, RRT 0.34",[1]; [7],"0.34, 0.10%"
same,"Other Impurities, RRT 0.42",[1]; [7],"0.42, 0.40%"
same,"Other Impurities, RRT 0.45",[1]; [7],"0.45, 0.05%"
same,"Other Impurities, RRT 0.48",[1]; [7],"0.48, 0.20%"
same,"Other Impurities, RRT 1.50",[1]; [7],"1.50, 0.20%"
same,"Other Impurities, RRT 1.56",[1]; [7],"1.56, 0.10%"
same,Purity,[1]; [7],99.50%
same,Total Impurities,[1]; [7],1.70%
same,Water content,[1]; [7],5.8%
same,pH,[1]; [7],10.3
same,Appearance,[1]; [8],White
same,Azaerythromycin,[1]; [8],0.3%
same,"Other Impurities, RRT 0.14",[1]; [8],"0.14, 0.20%"
same,"Other Impurities, RRT 0.24",[1]; [8],"0.24, 0.10%"
same,"Other Impurities, RRT 0.35",[1]; [8],"0.35, 0.20%"
same,"Other Impurities, RRT 0.43",[1]; [8],"0.43, 0.40%"
same,"Other Impurities, RRT 0.46",[1]; [8],"0.46, 0.07%"
same,"Other Impurities, RRT 0.49",[1]; [8],"0.49, 0.20%"
same,"Other Impurities, RRT 0.81",[1]; [8],"0.81, 0.06%"
same,"Other Impurities, RRT 0.85",[1]; [8],"0.85, 0.05%"
same,"Other Impurities, RRT 1.50",[1]; [8],"1.50, 0.20%"
same,"Other Impurities, RRT 1.55",[1]; [8],"1.55, 0.08%"
same,Purity,[1]; [8],98.10%
same,Total Impurities,[1]; [8],1.90%
same,Water content,[1]; [8],5.7%
same,pH,[1]; [8],10.3
same,degradation after storage,[1]; at least 3 months at 40° C. and 75% relative humidity,less than 2%
same,change in the water content after storage,[1]; at least about 3 months at 40° C. and 75% relative humidity,less than 5%
same,hygroscopicity (in words),[2]; [9],non-hygroscopic
same,stability (in words),[2]; [9],stable
same,water content after storage (in words),[2]; 3 months under ambient conditions,remained substantially unchanged
same,degradation products present after storage,"[2]; 3 months, ambient (room temperature)",less than 2 % (w/w)
same,Appearance,[2]; [10],White crystalline
same,Azaerythromycin,[2]; [10],0.3%
same,"Other Impurities, RRT = 0.23",[2]; [10],"RRT = 0.23, % = 0.10"
same,"Other Impurities, RRT = 0.26",[2]; [10],"RRT = 0.26, % = 0.20"
same,"Other Impurities, RRT = 0.34",[2]; [10],"RRT = 0.34, % = 0.10"
same,"Other Impurities, RRT = 0.42",[2]; [10],"RRT = 0.42, % = 0.30"
same,"Other Impurities, RRT = 0.45",[2]; [10],"RRT = 0.45, % = 0.07"
same,"Other Impurities, RRT = 0.48",[2]; [10],"RRT = 0.48, % = 0.20"
same,"Other Impurities, RRT = 1.45",[2]; [10],"RRT = 1.45, % = 0.05"
same,"Other Impurities, RRT = 1.50",[2]; [10],"RRT = 1.50, % = 0.20"
same,"Other Impurities, RRT = 1.56",[2]; [10],"RRT = 1.56, % = 0.10"
same,Purity,[2]; [10],100.10%
same,Total Impurities,[2]; [10],1.60%
same,Water content,[2]; [10],5.9%
same,pH,[2]; [10],10.4
same,Appearance,[2]; [11],White crystalline
same,Azaerythromycin,[2]; [11],0.3%
same,"Other Impurities, RRT = 0.10",[2]; [11],"RRT = 0.10, % = 0.20"
same,"Other Impurities, RRT = 0.24",[2]; [11],"RRT = 0.24, % = 0.10"
same,"Other Impurities, RRT = 0.35",[2]; [11],"RRT = 0.35, % = 0.10"
same,"Other Impurities, RRT = 0.43",[2]; [11],"RRT = 0.43, % = 0.30"
same,"Other Impurities, RRT = 0.46",[2]; [11],"RRT = 0.46, % = 0.07"
same,"Other Impurities, RRT = 0.49",[2]; [11],"RRT = 0.49, % = 0.20"
same,"Other Impurities, RRT = 0.81",[2]; [11],"RRT = 0.81, % = 0.10"
same,"Other Impurities, RRT = 0.84",[2]; [11],"RRT = 0.84, % = 0.08"
same,"Other Impurities, RRT = 1.50",[2]; [11],"RRT = 1.50, % = 0.20"
same,"Other Impurities, RRT = 1.55",[2]; [11],"RRT = 1.55, % = 0.10"
same,Purity,[2]; [11],98.70%
same,Total Impurities,[2]; [11],1.80%
same,Water content,[2]; [11],5.8%
same,pH,[2]; [11],10.2
"CC[C@H]1OC(=O)[C@H](C)[C@@H](OC2CC(C)(OC)C(O)C(C)O2)[C@H](C)[C@@H](OC2OC(C)CC(N(C)C)C2O)[C@](C)(O)C[C@@H](C)CN(C)[C@H](C)C(O)[C@]1(C)O (stereo partly drawn) [azithromycin, 9-deoxo-9a-aza-9a-methyl-9a-homoerythromycin A]",stability under acidic conditions,"[3]; acidic conditions, U.S. Pat. No. 6,586,576 B2",unstable
CC[C@H]1OC(=O)[C@H](C)[C@@H](O[C@H]2C[C@@](C)(OC)[C@@H](O)[C@H](C)O2)[C@H](C)[C@@H](O[C@@H]2O[C@H](C)C[C@H](N(C)C)[C@H]2O)[C@](C)(O)C[C@@H](C)CN(C)[C@H](C)[C@@H](O)[C@]1(C)O [azithromycin dihydrate],hygroscopicity (in words),[3],non-hygroscopic
same,stability (in words),[3],stable
CC[C@H]1OC(=O)[C@H](C)[C@@H](O[C@H]2C[C@@](C)(OC)[C@@H](O)[C@H](C)O2)[C@H](C)[C@@H](O[C@@H]2O[C@H](C)C[C@H](N(C)C)[C@H]2O)[C@](C)(O)C[C@@H](C)CN(C)[C@H](C)[C@@H](O)[C@]1(C)O [azithromycin monohydrate],hygroscopicity (in words),[3],hygroscopic
same,stability (in words),[3],unstable
CC[C@H]1OC(=O)[C@H](C)[C@@H](O[C@H]2C[C@@](C)(OC)[C@@H](O)[C@H](C)O2)[C@H](C)[C@@H](O[C@@H]2O[C@H](C)C[C@H](N(C)C)[C@H]2O)[C@](C)(O)C[C@@H](C)CN(C)[C@H](C)[C@@H](O)[C@]1(C)O.O [azithromycin monohydrate form],hygroscopicity (in words),[3],non-hygroscopic
same,stability (in words),[3],stable
